Experiments:
[1] = target: T1, ATP-dependent translocase ABCB1 (Homo sapiens, UniProt P08183); experiment: Inhibition of human ABCB1 in expressed in multidrug resistant mouse L5178Y cells assessed as fluorescence activity ratio at 20 uM by rhodamine 123 retention assay relative to parental L5178Y cells; format: cell-based
[2] = test system: L5178Y; experiment: Antiproliferative activity against mouse L5178Y cells by MTT assay; format: functional, cell-based
[3] = target: T1, ATP-dependent translocase ABCB1; experiment: Inhibition of human ABCB1 in expressed in multidrug resistant mouse L5178Y cells assessed as fluorescence activity ratio at 2 uM by rhodamine 123 retention assay relative to parental L5178Y cells; format: cell-based
[4] = test system: L5178Y; experiment: Antiproliferative activity against multidrug resistance mouse L5178Y cells expressing human MDR1 by MTT assay; format: functional, cell-based
[5] = test system: L5178Y; experiment: Cytotoxicity against multidrug resistance mouse L5178Y cells expressing human MDR1 assessed as reduction in cell viability by MTT assay; format: functional, cell-based
[6] = test system: L5178Y; experiment: Cytotoxicity against mouse L5178Y cells assessed as reduction in cell viability by MTT assay; format: functional, cell-based
[7] = target: T1, ATP-dependent translocase ABCB1; experiment: Inhibition of human ABCB1 in expressed in multidrug resistant mouse L5178Y cells assessed as fluorescence activity ratio by rhodamine 123 retention assay relative to verapamil; format: cell-based
[8] = organism: Homo sapiens; experiment: Substrate activity at Pgp (unknown origin) assessed as increase in ATP basal consumption at 100 uM by Pgp-Glo luminescence assay relative to control

T1 sequence (P08183 whole entry): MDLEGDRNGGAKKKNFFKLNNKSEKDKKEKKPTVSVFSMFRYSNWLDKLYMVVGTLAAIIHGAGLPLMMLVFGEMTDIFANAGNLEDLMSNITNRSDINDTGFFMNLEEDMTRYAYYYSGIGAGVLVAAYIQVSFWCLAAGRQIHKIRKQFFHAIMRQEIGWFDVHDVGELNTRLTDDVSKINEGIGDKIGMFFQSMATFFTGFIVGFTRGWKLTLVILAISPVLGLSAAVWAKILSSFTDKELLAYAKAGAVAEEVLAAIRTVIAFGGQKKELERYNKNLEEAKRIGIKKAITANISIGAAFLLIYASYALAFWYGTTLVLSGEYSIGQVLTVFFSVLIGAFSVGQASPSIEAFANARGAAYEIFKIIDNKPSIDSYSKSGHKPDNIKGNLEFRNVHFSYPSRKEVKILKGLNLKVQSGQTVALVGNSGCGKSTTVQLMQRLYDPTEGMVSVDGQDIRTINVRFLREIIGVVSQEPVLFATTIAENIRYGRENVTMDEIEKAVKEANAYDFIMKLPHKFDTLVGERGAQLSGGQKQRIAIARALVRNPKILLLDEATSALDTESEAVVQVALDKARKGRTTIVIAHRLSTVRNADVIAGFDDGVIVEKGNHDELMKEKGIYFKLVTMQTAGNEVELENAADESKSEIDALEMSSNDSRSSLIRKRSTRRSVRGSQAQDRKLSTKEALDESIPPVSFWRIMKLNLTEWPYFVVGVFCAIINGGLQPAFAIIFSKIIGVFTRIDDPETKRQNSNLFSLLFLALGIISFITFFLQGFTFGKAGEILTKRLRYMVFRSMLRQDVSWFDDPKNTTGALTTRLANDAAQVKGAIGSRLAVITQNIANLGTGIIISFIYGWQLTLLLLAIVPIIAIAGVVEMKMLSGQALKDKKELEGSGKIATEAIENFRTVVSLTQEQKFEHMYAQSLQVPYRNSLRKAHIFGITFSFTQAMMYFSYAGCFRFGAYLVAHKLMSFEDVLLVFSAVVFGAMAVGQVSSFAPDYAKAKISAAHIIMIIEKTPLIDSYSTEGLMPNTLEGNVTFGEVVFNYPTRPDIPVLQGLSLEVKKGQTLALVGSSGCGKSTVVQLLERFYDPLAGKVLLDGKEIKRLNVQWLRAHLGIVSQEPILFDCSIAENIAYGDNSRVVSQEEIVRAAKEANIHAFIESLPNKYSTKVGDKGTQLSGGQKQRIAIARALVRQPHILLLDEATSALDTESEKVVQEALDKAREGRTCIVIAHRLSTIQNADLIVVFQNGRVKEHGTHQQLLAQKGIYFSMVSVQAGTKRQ

SMILES | Ratio [1] | IC50 [2] | Ratio [3] | IC50 [4] | IC50 [5] | IC50 [6] | Ratio [7] | Activity [8]
CC(=O)c1ccc(OCCCCN2CCN(c3cccnc3)CC2)cc1 | 0.99 | 24.2 µM | 0.84 | 29.8 µM | 44 µM | 69 µM |  | 
CC(=O)c1ccc(OCCCCN2CCN(c3ccccn3)CC2)cc1 | 8.71 | 24.1 µM | 0.98 | 25.5 µM | 46.2 µM | 63.7 µM | 1.6 | 
CC(C)(C)c1ccc(OCCCCN2CCN(c3ncccn3)CC2)cc1 | 34.05 | 11.3 µM | 2.7 | 9.88 µM | 17.6 µM | 20.8 µM | 1.6 | 
CCC(=O)c1ccc(OCCCN2CCN(c3ncccn3)CC2)cc1 | 1.02 | 36.9 µM | 0.92 | 41.3 µM | 54.6 µM | > 100 µM |  | 
CC(C)(C)c1ccc(OCCCCN2CCN(c3cccnc3)CC2)cc1 | 25.33 | 5.48 µM | 2.81 | 5.99 µM | 10.5 µM | 11.7 µM | 1.6 | > 100%
CC(C)(C)c1ccc(OCCCCN2CCN(c3cnccn3)CC2)cc1 | 17.85 | 9.86 µM | 1.36 | 9.68 µM | 27.6 µM | 18.3 µM | 1.6 | 
CCC(C)(C)c1ccc(OCCCCN2CCN(c3cnccn3)CC2)cc1 | 73.64 | 9.56 µM | 1.85 | 9.49 µM | 12.8 µM | 12.6 µM | 1.6 | > 100%
CCC(C)(C)c1ccc(OCCCCN2CCN(c3cccnc3)CC2)cc1 | 19.26 | 3.23 µM | 5.95 | 3.68 µM | 7.59 µM | 9.23 µM | 1.6 | > 100%
CC(=O)c1ccc(OCCCN2CCN(c3ncccn3)CC2)cc1 | 1.03 | 53.2 µM | 1.06 | 77.5 µM |  | > 100 µM |  | 
CC(C)(C)c1ccc(OCCCCN2CCN(c3ccccn3)CC2)cc1 | 38.41 | 11.9 µM | 1.74 | 16.4 µM | 16.7 µM | 15.1 µM | 1.6 | > 100%
CCC(=O)c1ccc(OCCCN2CCN(c3cnccn3)CC2)cc1 | 0.82 | 24.3 µM | 0.83 | 30 µM | 60.3 µM | 47.5 µM |  | 
CSc1ccc2c(c1)N(CCC1CCCCN1C)c1ccccc1S2 (configuration not stated) [THIORIDAZINE] |  |  |  |  | 7.43 µM | 12.7 µM |  | 
CC(=O)c1ccc(OCCCN2CCN(c3ccncc3)CC2)cc1 | 1.61 | 42.3 µM | 1.29 | 43.8 µM |  | > 100 µM |  | 
CC(C)(C)c1ccc(OCCCN2CCN(c3ncccn3)CC2)cc1 | 1.02 | 25.6 µM | 0.93 | 20.7 µM | 49.4 µM | 40.4 µM |  | 
CC(=O)c1ccc(OCCCCN2CCN(c3ncccn3)CC2)cc1 | 1.28 | 31.6 µM | 0.86 | 38.9 µM | 63.9 µM | > 100 µM |  | 
CCC(C)(C)c1ccc(OCCCCN2CCN(c3ncccn3)CC2)cc1 | 32.32 | 17.7 µM | 2.17 | 18.9 µM | 32.1 µM | 46.4 µM | 1.6 | 
CC(=O)c1ccc(OCCCN2CCN(c3ccccn3)CC2)cc1 | 0.84 | 27.1 µM | 0.92 | 32.8 µM | 49.7 µM |  |  | 

From ChEMBL document CHEMBL4699470, “N-Substituted piperazine derivatives as potential multitarget agents acting on histamine H receptor and cancer resistance proteins” (Bioorg Med Chem Lett, 2020)
